# Patent US9771560B2, “High-throughput image-based chemical screening in zebrafish blastomere cell culture” (CHILDREN'S MEDICAL CENTER CORPORATION, priority 2012, dated 2017)
# “Also recorded” adds a separate entry of the source. Structures can show the parent of a compound that is named as a salt.
# What was measured:
# zebrafish embryos = assay: Whole-mount in situ hybridization with myoD riboprobe in chemical-treated zebrafish embryos; type: in vivo; parameters: key to myoD expression: Level 1: decreased myoD staining at different levels, which are indicated in FIG. 9A; Level 2: decreased myoD staining at different levels, which are indicated in FIG. 9A; Level 3: decreased myoD staining at different levels, which are indicated in FIG. 9A; Level 4: decreased myoD staining at different levels, which are indicated in FIG. 9A; details: for myoD expression: embryos treated at the sphere stage, assayed at the 6-somite stage, CHB library chemicals diluted 300-fold, compared with DMSO; for perturbation of muscle development in vivo (myoD riboprobe): treated at the sphere stage, 6-somite stage, diluted 300-fold
# Protocol: FIGS. 9A-9C show the chemical genetics screens to identify modifiers of skeletal muscle development (related to FIG. 2) FIG. 9A, Embryos were treated with hits at the sphere stage. Once the control embryos reached the 6-somite stage, they were collected for whole-mount in situ hybridization with the myoD riboprobe. […] Flat mounted embryos stained with the myoD riboprobe at the 6-somite stage are shown with anterior to the left. Embryos were treated with (±)-6-Chloro-PB hydrobromide, LY-294002, 1-ACYL-PAF, or ATRA. All chemicals were from the CHB library and were diluted 300-fold. The level of myoD reduction was determined by comparing the intensity of myoD expression in these embryos with that in control embryos treated with DMSO. FIG. 9B, myf5-GFP; mylz2-mCherry embryos were collected at the oblong stage and disassociated. The resulting blastomere cells were aliquoted into a 96-well plate with pre-added chemicals. The culture medium contained 10 ng/ml bFGF to promote muscle development. Cells were treated with 50 μM tyrphostin AG 879, 50 μM tyrphostin AG 808, 50 μM tyrphostin AG 555, 50 μM PD 98059, 10 μM U0126, 10 μM LY-294002, 10 μM wortmannin, or 20 μM rapamycin. Cells were imaged after 2 days by the Celigo cytometer for GFP, mCherry, and bright-field signals. FIG. 9C, 1-cell-stage myf5-GFP; mylz2-mCherry embryos were injected with 250 pg fgf8-MO and 250 pg fgf24-MO and rescued by adding […] at the dome stage.
# Whole mount in situ hybridizations were performed as previously described (Belting et al., 2001).
# [1] = tested on: zebrafish blastomere cells; assay: Culture of disassociated myf5-GFP; mylz2-mCherry blastomere cells in zESC medium (validation and pathway inhibitor tests); type: cell-based
# Protocol: FIGS. 1A-1E show the chemical genetic screen to identify modifiers of skeletal muscle development. […] The yolk of the double transgenic embryo is mCherry positive, presumptively due to the maternal deposit of mCherry protein. mylz2-mCherry expression is not observed until 32 hpf. Its expression is first detected in anterior somites and then progressively spreads to posterior somites. […] Images were taken 48 hours after plating. Scale bars represent 250 μM. […] Blastomere cells from myf5-GFP; mylz2-mCherry embryos were cultured with or without bFGF and harvested at 24 hours. Results of bFGF treated cells are normalized to the expression of untreated cells. Error bars represent standard deviation (SD) from the triplicate quantitative RT-PCR reaction. All expressions are normalized to β-actin. […] Blastomere cells from myf5-GFP; mylz2-mCherry embryos were cultured with bFGF and harvested at 24 hours. Different populations were isolated by FACS. Results are normalized to the expression of cells of the double negative population. Error bars represent standard deviation (SD) from the triplicate quantitative RT-PCR reaction. All expressions are normalized to β-actin. […] 0.1% DMSO or 100 nM ATRA was added immediately. Images were taken 48 hours after plating. Scale bars represent 250 μM.
# FIGS. 9A-9C show the chemical genetics screens to identify modifiers of skeletal muscle development (related to FIG. 2) FIG. 9A, Embryos were treated with hits at the sphere stage. Once the control embryos reached the 6-somite stage, they were collected for whole-mount in situ hybridization with the myoD riboprobe. […] Flat mounted embryos stained with the myoD riboprobe at the 6-somite stage are shown with anterior to the left. Embryos were treated with (±)-6-Chloro-PB hydrobromide, LY-294002, 1-ACYL-PAF, or ATRA. All chemicals were from the CHB library and were diluted 300-fold. The level of myoD reduction was determined by comparing the intensity of myoD expression in these embryos with that in control embryos treated with DMSO. […]
# [2] = tested on: human iPSCs (00409, 05400, and BJ)
# Protocol: Cells were differentiated by generating EBs in suspension culture 7 days and then transferred to matrigel-coated plates for additional 29 days. During the suspension culture the cells received the differentiation medium STEMDiff Apel medium ([sequence] technologies) supplied with 10 ng/ml bFGF (Invitrogen), 0.5 μM BIO (Santa Cruz Biotechnologies) and 20 μM forskolin (Santa Cruz Biotechnologies). Two-three days after plating EBs, the medium was switched to DMEM complemented with 2% horse serum for the remaining differentiation.
# Embryoid bodies (EBs) from BJ, 00409 or 05400 iPSCs were exposed for 7 days to a serum-free differentiation medium containing bFGF (10 ng/ml), BIO (0.5 μM) and forskolin (20 μM) (medium added at day 1, 3 and 5). […] After 7 days, we measured the expression of a panel of markers specific for ectoderm, endoderm or mesoderm to quantify differentiation outcomes.
# [3] = tested on: zebrafish blastomere cells; assay: High-throughput image-based chemical screen in myf5-GFP; mylz2-mCherry zebrafish blastomere cell culture with bFGF; details: medium supplemented with bFGF, 384-well, Celigo cytometer
# Text: (§1) FIGS. 2A-2C show the chemical genetic screens to identify modifiers of skeletal muscle development. FIG. 2A is a schematic of a high-throughput image-based chemical screening assay. Approximately 800 myf5-GFP; mylz2-mCherry double transgenic embryos were collected and disassociated at the oblong stage. The resulting blastomere cells were aliquoted into four 384-well plates with pre-added chemicals. We performed duplicates for each chemical to mitigate false positives. After 2 days, the 384-well plates were imaged using a Celigo cytometer. For each well, an image for each signal channel was captured. GFP and mCherry signals were determined by the Celigo cytometer's built-in software and confirmed by eye. […] Most of the hits could be grouped into three categories. […] The phenotype is presumptively due to inhibition of differentiation of muscle progenitors into mature muscle. […] This phenotype is presumptively due to the blocking of muscle progenitor commitment. […] Scale bars represent 250 μM. […] Scale bars represent 250 μM.
# Disassociated blastomere cells were grown in zESC medium, which is composed of 70% LDF medium and 30% RTS34st-conditioned medium. The LDF medium contains 50% Leibowitz's L-15 (Invitrogen), 35% DMEM (Invitrogen), and 15% Ham's F-12 (Invitrogen), supplemented with 0.18 g/l sodium bicarbonate, 15 mM HEPES (Invitrogen), 1% L-Glutamine (Invitrogen), 10 μg/ml ciprofloxacin (Sigma-Aldrich), 100 μg/ml piperacillin (Sigma-Aldrich), 10 μg/ml amphotericin B (Sigma-Aldrich), 10 nM sodium selenite (Sigma-Aldrich), 1% N2 (Invitrogen), and 2% B27 (Invitrogen). The RTS34st conditioned medium was prepared by incubating fresh medium (Leibowitz's L-15 plus 15% FBS) on a confluent culture of RTS34st cells for 3 days.
# (§2) Four 384-well plates were coated with 0.1% gelatin. Chemicals from the CHB library were diluted 150 times with zESC medium containing 1 ng/ml bFGF and were aliquoted 30 μl per well. Males and females of the myf5-GFP; mylz2-mCherry transgenic line were set up overnight and kept separated until morning when they were mixed for mate. Approximately 800 oblong-stage embryos were washed three times with E3 embryo water and were treated with pronase to remove chorions. Dechorionated embryos were washed with E3 embryo water three times and collected into a 50 ml falcon tube with 25 ml zESC medium containing 1 ng/ml bFGF. Embryos were disassociated by shaking approximately 20 times and were filtered through a 70 μm nylon mesh filter. The resulting single cells were diluted to 60 ml with zESC medium containing 1 ng/ml bFGF and aliquoted 30 μl per well into the four 384-well plates with pre-added chemicals. The cells were cultured in a 28-degree incubator without CO2. Cells were imaged by a Celigo cytometer (Cyntellect) under channels of GFP, mCherry, and transmitted light. The images were analyzed by the built-in software and confirmed eye.
# To enable a higher throughput analysis of candidate modifiers of skeletal myogenesis, the embryo culture system was adapted to a semi-automated chemical screening platform. myf5-GFP; mylz2-mCherry embryos were collected from double transgenic parents and disassociated at the oblong stage. […] After one day, the cells were automatically imaged and analyzed using a Celigo cytometer for GFP, mCherry, and bright-field signals, and image analysis was confirmed by visual inspection (FIG. 2A).
# [4] = tested on: zebrafish blastomere cells; assay: Sensitized chemical screen in zebrafish blastomere cell culture in the absence of bFGF; type: cell-based
# Text: as §1, §2
# The strong muscle promoting effect of bFGF made it difficult to identify enhancers of skeletal muscle development in our original system. Only one out of 2,400 chemicals was identified to promote muscle development. To sensitize the system for identifying enhancers of skeletal muscle development, we repeated the screen in the absence of bFGF. […] Among the six hits were three GSKβ inhibitor (kenpaullone, SB415286, and SB216763), two calpain inhibitors (E-64-D and MDL28170) and one cAMP activator forskolin.
compound,measurement,setting,value
Cl.Oc1cc2c(c(Cl)c1O)CCNCC2c1ccccc1 (racemic) [(±)-6-Chloro-PB hydrochloride],myoD expression,zebrafish embryos,Level 1
same,perturbation of muscle development in vivo (myoD riboprobe),zebrafish embryos,verified to perturb muscle development in vivo
"CCCC[N+]1(C)[C@@H]2C[C@@H](OC(=O)[C@H](CO)c3ccccc3)C[C@H]1[C@@H]1O[C@@H]12.[Br-] (single isomer, unassigned; (-)) [(-)-Scopolamine, n-Butyl-, bromide]",myoD expression,zebrafish embryos,Level 1
"CC1=C(/C=C/C(C)=C/C=C/C(C)=C/C(=O)O)C(C)(C)CCC1 [ATRA, all-trans retinoic acid]",myoD expression,zebrafish embryos,Level 4
same,perturbation of muscle development in vivo (myoD riboprobe),zebrafish embryos,verified to perturb muscle development in vivo
same,skeletal muscle development in vitro,"[1]; zESC medium with bFGF, 100 nM ATRA, images 48 hours after plating",blocked skeletal muscle development; also recorded: blocks muscle development in vitro
"O=C1Nc2cc(Br)ccc2/C1=C1/Nc2ccccc2/C1=N\O [BIO, 6-Bromoindirubin-3′-oxime]",toxicity compared with other GSK3β antagonists,[2],lower toxicity
CCCNC(=O)[C@H]1O[C@@H]1C(=O)N[C@H](C(=O)N1CCC[C@H]1C(=O)OC)[C@@H](C)CC [CA-074-Me],change of myf5-GFP and mylz2-mCherry signals (hit category),[3],only myf5-GFP expression
CCOC(=O)[C@H]1O[C@@H]1C(=O)N[C@@H](CC(C)C)C(=O)NCCC(C)C [E-64-D],GFP and mCherry signals,[4],increase the GFP and mCherry signals
C=C1C(=O)O[C@@H]2C[C@@H](C)[C@@H]3C=CC(=O)[C@@]3(C)[C@@H](O)[C@H]12 [Helenalin],myoD expression,zebrafish embryos,Toxic
"O=c1cc(N2CCOCC2)oc2c(-c3ccccc3)cccc12 [LY-294,002 hydrochloride]",myoD expression,zebrafish embryos,Level 2
CN(Cc1cnc2nc(N)nc(N)c2n1)c1ccc(C(=O)N[C@@H](CCC(=O)O)C(=O)O)cc1 [Methotrexate],myoD expression,zebrafish embryos,No change
COCC(=O)O[C@]1(CCN(C)CCCc2nc3ccccc3[nH]2)CCc2cc(F)ccc2[C@@H]1C(C)C.Cl.Cl [Miberfradil dihydrochloride],myoD expression,zebrafish embryos,Level 2
CO[C@H]1C[C@@H]2CC[C@@H](C)[C@@](O)(O2)C(=O)C(=O)N2CCCC[C@H]2C(=O)O[C@H]([C@H](C)C[C@@H]2CC[C@@H](O)[C@H](OC)C2)CC(=O)[C@H](C)/C=C(\C)[C@@H](O)[C@@H](OC)C(=O)[C@H](C)C[C@H](C)/C=C/C=C/C=C/1C [Rapamycin],myoD expression,zebrafish embryos,Level 2
Cl.NCCNC(=O)c1ncsc1-c1cccc(F)c1 [Ro 41-1049 hydrochloride],change of myf5-GFP and mylz2-mCherry signals (hit category),[3],decreased amount of both fluorescent colors
same,myoD expression,zebrafish embryos,Level 4
Cn1cc(C2=C(c3ccc(Cl)cc3Cl)C(=O)NC2=O)c2ccccc21 [SB216763],GFP and mCherry signals,[4],increase the GFP and mCherry signals
O=C1NC(=O)C(c2ccccc2[N+](=O)[O-])=C1Nc1ccc(O)c(Cl)c1 [SB415286],change of myf5-GFP and mylz2-mCherry signals (hit category),[3],increased expression of both markers
same,GFP and mCherry signals,[4],increase the GFP and mCherry signals
NC(=O)c1ccc(-c2nc(-c3ccccn3)c(-c3ccc4c(c3)OCO4)[nH]2)cc1 [SB-431542],myoD expression,zebrafish embryos,No change
Cl.Cl.Cl.NCCCCNCCCN [Spermidine trihydrochloride],myoD expression,zebrafish embryos,Level 1
Clc1cnc(Oc2ccc(Oc3ncc(Cl)cc3Cl)cc2)c(Cl)c1 [TCPOBOP],change of myf5-GFP and mylz2-mCherry signals (hit category),[3],only myf5-GFP expression
N#C/C(=C\c1c[nH]c2ccccc12)C(=O)c1ccc(O)c(O)c1 [Tyrphosfin AG 808],myoD expression,zebrafish embryos,Level 1
C[C@@H](NC(=O)/C(C#N)=C/c1ccc(O)c(O)c1)c1ccccc1 [Tyrphostin AG 527],myoD expression,zebrafish embryos,No Change; also recorded: Level 1
CC(C)(C)c1cc(/C=C(\C#N)C(N)=S)cc(C(C)(C)C)c1O [Tyrphostin AG 879],change of myf5-GFP and mylz2-mCherry signals (hit category),[3],decreased amount of both fluorescent colors
same,myoD expression,zebrafish embryos,Toxic
"O=C1Cc2c([nH]c3ccc(Br)cc23)-c2ccccc2N1 [kenpaullone, 9-bromopaullone]",GFP and mCherry signals,[4],increase the GFP and mCherry signals
MDL28170,GFP and mCherry signals,[4],increase the GFP and mCherry signals
basic fibroblast growth factor [bFGF],GFP and mCherry expression of cultured blastomere cells,[1]; bFGF added to zESC medium,majority of cells became GFP and mCherry double positive
same,"expression of other myogenic genes (myoD, mrf4, myog), quantitative RT-PCR","[1]; cultured with bFGF, harvested at 24 hours",highly expressed
